Like-named read-outs stand apart in the source and are kept apart here.
Tests used:
guinea pig ileum = assay: antigen-induced contraction of ileum from sensitized guinea pigs; settings: Cavia porcellus, read-out: Percentage Inhibition, 30 μM compound, n = 3-4
Method: The ability of compounds to inhibit allergen-induced contraction of ileum from sensitized animals is indicative of antiallergic activity. Sensitized guinea pig ileum is particularly useful in measuring the immediate allergic response.
The guinea pig ileum has been used to evaluate the ability of compounds to inhibit allergan-induced histamine and mediator release causing smooth muscle contraction. Guinea pigs were sensitized by an intraperitoneal injection of 100 mg ovalbumin and an intramuscular injection of 50 mg ovalbumin on day 0, followed by a second intramuscular injection of 50 mg ovalbumin on day 1. […] Segments of ileum were prepared and suspended, with muscle contractions being measured in the longitudinal plane, in Tyrode's buffer at 37° C. and aerated with 5% CO2 in O2. Tissues were suspended under a resting tension of 2 grams and isometric contractions were measured using force-displacement transducers coupled to a polygraph. Tissues were stimulated with 3 μM histamine 3 times to ensure reproducible contractions were obtained. Tissues were then incubated with each compound (30 μM) or 0.15% dimethylsulphoxide (DMSO) as a control, for 20 min, after which time the tissues were challenged with 100 μg/ml ovalbumin. The magnitude of the contraction induced by OA in the presence of each compound was expressed as a percentage of the contraction obtained to 3 μM histamine. The protective effects of the various compounds on OA-induced contraction of guinea pig ileum from sensitized animals are summarized in Table 4.

[1] = test system: passively sensitized rat mast cells (RBL-2H3); assay: antigen-induced release of hexosaminidase from RBL-2H3 cells; assay type: cell-based; settings: for inhibition at 25 µM: Rattus norvegicus
Method: (§1) The anti-allergic effects of various polyhydroxylated steroids of the present invention were evaluated by measuring their effect on antigen-induced secretion of hexosaminidase from a passively sensitized rat mast cell line (RBL-2H3) and a murine mast cell line (MC/9). The ability of agents to inhibit the release of mast cell granule contents, e.g., histamine and hexosaminidase, is indicative of anti-allergy and/or anti-asthma activity.
(§2) Hexosaminidase is released from the mast cell granule along with histamine and other mediators during antigen challenge. RBL-2H3 and MC/9 cells were grown in culture and passively sensitized to dinitrophenol (DNP) using anti-human-DNP (IgE). Cells were incubated with each compound (25 μM) for 1 hour at 37° C. and then stimulated with 0.1 mg/ml DNP-HSA (antigen) for 15 min. Aliquots of the supernatant were removed and used to measure the amount of hexosaminidase released during challenge with the antigen. The amount of hexosaminidase present in the supernatant was determined calorimetrically by monitoring the enzymatic metabolism of p-nitrophenyl-N-acetyl-β-D-glucosaminide (p-NAG) over a period of 1 hour at 410 nm. The effect of each compound was determined as a percentage of the antigen-induced response (minus background release) obtained in the presence of DMSO alone, as set forth in Tables 2 and 3. These values were used to determine the degrees of inhibition of antigen-induced hexosaminidase release from the cells.

isolated trachea = test system: isolated trachea; set-up: species or system guinea pig; settings: compound 20 μM, study 2
Method: The effects of a number of the compounds described herein on allergen-induced bronchoconstriction were evaluated for anti-asthma activity. The ability of a compound to inhibit allergen-induced decreases in lung function in sensitized guinea pigs in response to antigen-challenge is indicative of anti-asthma activity. In particular, the model system is useful in the evaluation of the potential effects of a compound in the treatment of the early asthmatic reaction (EAR) when severe bronchoconstriction occurs.
Guinea pigs were exposed to a nebulized solution of 1% ovalbumin (OA) in saline for 15 min. […] Tracheal rings were prepared and bathed in Krebs-Henseleit solution at 37° C. and aerated with 5% CO2 in […]. Tissues were suspended under a resting tension of 2 g and isometric contractions were measured using force-displacement transducers coupled to a polygraph. Tissues were incubated with each compound or 0.1% dimethylsulfoxide (as a control) for 20 min, after which increasing concentrations of OA (0.001-100 μg/ml) were added to the tissue. After the final concentration of OA was added and the response was recorded, the tissues were stimulated with 100 μM methacholine which caused maximum contraction of the trachea. The magnitude of the contraction induced by OA in the presence of each compound was expressed as a percentage of the maximum contraction obtained using methacholine (100 μM).

mouse mast cells (MC/9) = assay: antigen-induced release of hexosaminidase from MC/9 cells; assay type: cell-based; settings: for inhibition at 25 µM: Mus musculus, MC9, 25 μM compound, read-out: Percentage Inhibition (mean) MC/9 cells
Method: as §1, §2

sensitized guinea pigs = assay: allergen-induced changes in lung resistance and compliance in vivo; set-up: species or system guinea pig; settings: 5 mg/kg/day for 4 days p.o.
Method: Female Cam Hartley guinea pigs (350-400 g) are sensitized to ovalbumin by exposure of the guinea pigs to a nebulized solution of 1% ovalbumin in saline for 15 minutes. After 10-12 days, the animals are found to be acutely sensitized to the allergen (ovalbumin). Animals are treated by oral gavage, under light halothane anesthesia, with 300 μl polyethyleneglycol-200 (PEG) or 5 mg/Kg of test compound in 300 μl of PEG. Animals are treated once daily for 4 days with the final dose administered 2 hours prior to allergen challenge. Alternatively, compounds were delivered by inhalation, using a Hudson nebulizer driven by 6 psi oxygen, providing a single dose of 50 μg/Kg 20 min prior to challenge.
An animal is anaesthetized using ketamine ([…]; i.p.) and xylazine (10 mg/Kg; i.p.) and 1% halothane during the surgical procedure. A tracheostomy is performed and a water-filled esophageal cannula is inserted prior to positioning the animal in a body plethysmograph. The tracheal cannula is attached to a fixed tracheal cannula in the plethysmograph. Cardiac function is monitored using electrocardiography. The animal is paralyzed using pancuronium bromide (0.8 mg/Kg; i.m.) and ventilated with 3 ml tidal breaths using a Harvard small animal ventilator, at a frequency of 60 breaths per minute. Pulmonary resistance and dynamic lung compliance data are obtained from volume, flow and transpulmonary pressure signals using multipoint analysis.
Pulmonary function is continually monitored throughout the experiment and measurements of lung resistance and lung compliance are made at various time-points (e.g., 0, 1, 2, 3, 4, 5, 10, 20 and 30 min) following antigen challenge. Data is collected on a computer-linked physiological measurement system using DIREC Physiological recording software and analyzed using ANADAT software designed for lung mechanics measurements. This software was obtained from RHT-InfoDat Inc., Montreal, Quebec, Canada.
Once baseline resistance and compliance measurements are obtained, the animal is challenged with 6 breaths of saline. After 10 minutes, during which time no alterations in lung function should occur, the animal is challenged with 6 breaths of 2 or 3% ovalbumin in saline (as the antigen stimulus). Saline and antigen are delivered in each breath using a Hudson nebulizer.

[2] = RBL-2H3, read-out: Percentage Inhibition (mean) RBL-2H3 Cells
[3] = RBL-2H3, 25 μM compound, antigen-induced hexosaminidase release, read-out: Percentage Inhibition (mean) RBL-2H3 Cells

| Structure (SMILES) | inhibition at 30 µM (guinea pig ileum) | inhibition at 25 µM [1, 3] | inhibition at 25 µM (mouse mast cells (MC/9)) | further results |
| --- | --- | --- | --- | --- |
| CC(C)(C)[Si](C)(C)OC1CC[C@]2(C)C3CC[C@@]4(C)C(CCC45OCCO5)C3[C@@H](O)[C@H](O)C2C1 (stereo partly drawn) [Compound 221] | 60.7% | – | – | – |
| C[C@]12CC[C@H]3O[C@H]3[C@@H]1[C@@H](O)[C@H](O)[C@@H]1[C@@H]2CC[C@]2(C)[C@@H](O)CC[C@@H]12 [Compound 239, 3α,4α-epoxy-6α,7β,17β-trihydroxy-5α-androstane] | – | – | – | inhibition at 25 µM [1, 2]: 9.6% |
| C[C@]12CC[C@@H](O)[C@H](O)[C@@H]1[C@@H](O)[C@H](O)[C@@H]1[C@@H]2CC[C@]2(C)[C@@H](O)CC[C@@H]12 [Compound 241, 3α,4β,6α,7β,17β-pentahydroxy-5α-androstane] | – | – | – | inhibition at 25 µM [1, 2]: 22% |
| C/C=C1/CCC2C3CCC4C[C@@H](O)CC[C@]4(C)C3CC[C@]12C (stereo partly drawn) [Compound 251] | -10.5% | – | – | – |
| CC(C)[C@H]1CC(=O)OC([C@@H](C)C2CC(=O)C3C4CCC5C[C@@H](O)CC[C@]5(C)C4CC[C@@]32C)C1 (stereo partly drawn) [Compound 266] | 17.4% | -12.5% | – | – |
| CC(C)C1CC(O)OC(C(C)C2CCC3C4C(CC[C@]23C)[C@@]2(C)CC[C@@H](O)CC2[C@@H](O)[C@@H]4O)C1 (stereo partly drawn) [Compound 306, 22,29-epoxy-3,6,7,29-tetrahydroxystigmastanol] | – | 40.5% | – | – |
| CC(=O)O[C@@H]1C2C(CC[C@@]3(C)C2CCC32OCCO2)[C@@]2(C)CC[C@H](O)CC2[C@H]1OC(C)=O (stereo partly drawn) [Compound 322] | – | 25.6% | – | – |
| C[C@]12CC[C@@H](O)C[C@@H]1[C@@H](O)[C@H](O)[C@@H]1[C@@H]2CC[C@]2(C)C(=O)CC[C@@H]12 [Compound 326] | – | – | – | percentage contraction compared to 100 μM methacholine (isolated trachea; OA 0.01 μg/ml): 0% |
| C[C@]12CC[C@@H](O)C[C@@H]1[C@@H](O)[C@H](O)[C@@H]1[C@@H]2CC[C@]2(C)[C@@H](O)CC[C@@H]12 [Compound 327] | – | – | – | inhibition at 25 µM [1, 2]: 35.2%; percentage contraction compared to 100 μM methacholine (isolated trachea; OA 0.01 μg/ml): 0%; percentage contraction compared to 100 μM methacholine (isolated trachea; OA 0.1 μg/ml): 0% |
| C[C@]12CC[C@H](O)CC1[C@@H](O)[C@H](O)C1C2CC[C@@]2(C)C1CCC21OCCO1 (stereo partly drawn) [Compound 328] | – | 34.3% | – | – |
| CC1(C)O[C@@H]2C3C(CC[C@]4(C)C(=O)CCC34)[C@@]3(C)CC[C@H](O)CC3[C@H]2O1 (stereo partly drawn) [Compound 331] | 14.5% | – | 5% | – |
| C/C=C1/CCC2C3C(CC[C@]12C)[C@@]1(C)CCC(=O)CC1[C@@H](O)[C@@H]3O (stereo partly drawn) [Compound 335] | 30.7% | 56% | 69% | – |
| C/C=C1/CCC2C3C(CC[C@]12C)[C@@]1(C)CC[C@@H](Cl)CC1[C@H]1OC(C)(C)O[C@H]31 (stereo partly drawn) [Compound 336] | 79.3% | – | – | – |
| C/C=C1/CCC2C3C(CC[C@]12C)[C@@]1(C)CC[C@@H](Cl)CC1[C@@H](O)[C@@H]3O (stereo partly drawn) [Compound 337] | 50.7% | 44% | 56% | – |
| C/C=C1/CCC2C3C(CC[C@]12C)[C@@]1(C)CC[C@@H](O)CC1[C@H]1OC(C)(C)O[C@H]31 (stereo partly drawn) [Compound 338] | 64% | – | – | – |
| C=C1CCC2C3C(CC[C@]12C)[C@@]1(C)CC[C@H](O)CC1[C@@H](O)[C@@H]3O (stereo partly drawn) [Compound 342] | 28.3% | 57% | 39% | Lung Compliance (sensitized guinea pigs; 1 min after challenge): 0.154 ± 0.055 ml/cm H2O; Lung Resistance (sensitized guinea pigs; 1 min after challenge): 0.453 ± 0.120 cm H2O/ml/sec; Lung Compliance (sensitized guinea pigs; 2 min after challenge): 0.073 ± 0.038 ml/cm H2O; Lung Resistance (sensitized guinea pigs; 2 min after challenge): 1.786 ± 0.82 cm H2O/ml/sec; Lung Compliance (sensitized guinea pigs; 3 min after challenge): 0.044 ± 0.022 ml/cm H2O; Lung Resistance (sensitized guinea pigs; 3 min after challenge): 1.930 ± 0.55 cm H2O/ml/sec; Lung Compliance (sensitized guinea pigs; 4 min after challenge): 0.044 ± 0.022 ml/cm H2O; Lung Resistance (sensitized guinea pigs; 4 min after challenge): 1.621 ± 0.36 cm H2O/ml/sec; Lung Compliance (sensitized guinea pigs; 5 min after challenge): 0.038 ± 0.015 ml/cm H2O; Lung Resistance (sensitized guinea pigs; 5 min after challenge): 1.4816 ± 0.32 cm H2O/ml/sec; Lung Compliance (sensitized guinea pigs; 10 min after challenge): 0.048 ± 0.005 ml/cm H2O; Lung Resistance (sensitized guinea pigs; 10 min after challenge): 1.002 ± 0.14 cm H2O/ml/sec; Lung Compliance (sensitized guinea pigs; 20 min after challenge): 0.084 ± 0.005 ml/cm H2O; Lung Resistance (sensitized guinea pigs; 20 min after challenge): 0.524 ± 0.08 cm H2O/ml/sec; Lung Compliance (sensitized guinea pigs; 30 min after challenge): 0.109 ± 0.006 ml/cm H2O; Lung Resistance (sensitized guinea pigs; 30 min after challenge): 0.354 ± 0.04 cm H2O/ml/sec; Lung Compliance (sensitized guinea pigs; Baseline): 0.444 ± 0.037 ml/cm H2O; Lung Resistance (sensitized guinea pigs; Baseline): 0.212 ± 0.020 cm H2O/ml/sec; Lung Compliance (sensitized guinea pigs; OA/10 s): 0.464 ± 0.031 ml/cm H2O; Lung Resistance (sensitized guinea pigs; OA/10 s): 0.223 ± 0.020 cm H2O/ml/sec |
| C[C@H]1CCC2C3C(CC[C@@]21C)[C@@]1(C)CC[C@H](O)CC1[C@@H](O)[C@@H]3O (stereo partly drawn) [Compound 343] | 48.9% | 52% | 40% | – |
| C/C=C1/CCC2C3C(CC[C@]12C)[C@@]1(C)CCCCC1[C@@H](O)[C@@H]3O (stereo partly drawn) [Compound 346] | 62.5% | 16% | 61% | – |
| C[C@@]12CCCC1C1C(CC2)[C@@]2(C)CC[C@H](O)CC2[C@@H](O)[C@@H]1O (stereo partly drawn) [Compound 351] | 43.6% | 33.6% | – | – |
| CC(C)CCCC(C)C1CCC2C3C(O)C(O)C4CC(O)CCC4(C)C3CCC12C (stereo not drawn) [Compound 354] | – | – | – | Percentage Inhibition (mean) RBL-2H3 Cells ([1]; 25 μM compound, antigen-induced hexosaminidase release): 30%; Percentage Inhibition (mean) MC/9 cells (mouse mast cells (MC/9); 25 μM compound): 76% |
| CC[C@H]1CCC2C3C(CC[C@@]21C)[C@@]1(C)C[C@@H](O)C(O)CC1[C@@H](O)[C@@H]3O (stereo partly drawn) [Compound 360] | 50.5% | 76% | – | – |
| CC[C@H]1CCC2C3C(CC[C@@]21C)[C@@]1(C)CC[C@@H](O)CC1[C@H]1OC(C)(C)O[C@H]31 (stereo partly drawn) [Compound 361] | 55% | – | 13% | – |

From patent US6949533B2, “6,7-Oxygenated steroids and uses related thereto” (Inflazyme Pharmaceuticals Ltd., priority 1996, dated 2005)
